In the test the target is recombinant human GST-Syk (Homo sapiens (Human), UniProt P43405). Put plainly: Homogeneous Time-Resolved Fluorescence (HTRF) assay for the recombinant human Syk enzyme. It is filed as biochemical. The conditions noted are these: recombinant human GST-Syk 5 pM, ATP 25 μM, read-out: rhSyk IC50. As to the method: Syk inhibition may be determined using the following assay protocol: Homogeneous Time-Resolved Fluorescence (HTRF) Assay for the Recombinant Human Syk Enzyme: A recombinant GST-hSyk fusion protein was used to measure potency of compounds to inhibit human Syk activity. […] To initiate the reaction the biotinylated substrate peptide (250 nM final concentration) that contains the phosphorylation site for Syk was added with magnesium (5 mM final concentration) and ATP (25 μM final concentration). […] Final volume of the quenching solution was 10 μL.
For orientation: TR-FRET usually uses a lanthanide donor and a delayed reading to cut background.

Here are results for 17 molecules from patent US9145391B2, “Bipyridylaminopyridines as Syk inhibitors” (Merck Sharp & Dohme Corp., priority 2011, dated 2015).

A word on the IC50: it is the concentration that inhibits the measured activity by half.

Consider `CC(=O)OC(C)OC(=O)[C@H]1CC[C@H](C(C)(O)c2ccc(-c3cc(C)cc(Nc4cc(C(F)F)ccn4)n3)cn2)CC1` (single isomer, unassigned) [Example 21-3, 1-(acetyloxy)ethyl trans-4-[(1R or 1S)-1-(6-{[4-(difluoromethyl)pyridin-2-yl]amino}-4-methyl-2,3′-bipyridin-6′-yl)-1-hydroxyethyl] cyclohexanecarboxylate], for which the IC50 turned out to be 1.5 nM. Then `Cc1cc(Nc2cc(C(F)F)ccn2)nc(-c2ccc(C(C)(O)[C@H]3CC[C@H](C(=O)OC(C)OC(=O)C(C)C)CC3)nc2)c1` (single isomer, unassigned) [Example 21-4, 1-[(2-methylpropanoyl)oxy]ethyl trans-4-[(1R or 1S)-1-(6-{[4-(difluoromethyl)pyridin-2-yl]amino}-4-methyl-2,3′-bipyridin-6′-yl)-1-hydroxyethyl] cyclohexanecarboxylate], with 23 nM; and `Cc1cc(Nc2cc(C(F)F)ccn2)nc(-c2ccc(C(C)(O)[C@H]3CC[C@H](C(=O)OC(C)OC(=O)C(C)C)CC3)nc2)c1` (single isomer, unassigned) [Example 21-5, 1-[(2-methylpropanoyl)oxy]ethyl trans-4-[(1R or 1S)-1-(6-{[4-(difluoromethyl)pyridin-2-yl]amino}-4-methyl-2,3′-bipyridin-6′-yl)-1-hydroxyethyl] cyclohexanecarboxylate], with 33 nM; and `CC(=O)OCCOC(=O)[C@H]1CC[C@H](C(C)(O)c2ccc(-c3cc(C)cc(Nc4cc(C(F)F)ccn4)n3)cn2)CC1` (single isomer, unassigned) [Example 21-6, 2-(acetyloxy)ethyl trans-4-[(1R or 1S)-1-(6-{[4-(difluoromethyl)pyridin-2-yl]amino}-4-methyl-2,3′-bipyridin-6′-yl)-1-hydroxyethyl] cyclohexanecarboxylate], with 15 nM.

In the case of `Cc1cc(Nc2cc(C(F)F)ccn2)nc(-c2ccc(C(C)(O)[C@H]3CC[C@H](CO)CC3)nc2)c1` (single isomer, unassigned) [Example 23, (1R or 1S)-1-(6-{[4-(difluoromethyl)pyridin-2-yl]amino}-4-methyl-2,3′-bipyridin-6′-yl)-1-[trans-4-(hydroxymethyl)cyclohexyl]ethanol], the concentration for half-maximal inhibition (IC50) is 1 nM. For `Cc1cc(Nc2cc(C(F)(F)F)ccn2)nc(-c2ccc(F)nc2)c1` [Example 1-1] the value was 38 nM. For `Cc1ccnc(Nc2cc(C)cc(-c3ccc(F)nc3)n2)c1` [Example 1-2] the value was 111 nM; for `Cc1ccnc(Nc2cc(C)cc(-c3ccnc(F)c3)n2)c1` [Example 1-3], 135 nM. For `Cc1cc(Nc2cc(C(F)(F)F)ccn2)nc(-c2ccnc(F)c2)c1` [Example 1-4] the value was 87 nM; for `Cc1cc(Nc2cc(C(F)(F)F)ccn2)nc(-c2ccc(C3(O)CCN(C(=O)OC(C)(C)C)CC3)nc2)c1` [Example 1-5], 406 nM. On to `CCOC(=O)C1CCC(O)(c2ccc(-c3cc(C)cc(Nc4cc(C(F)(F)F)ccn4)n3)cn2)CC1` (centres unmarked) [Example 1-10], for which the IC50 was 45 nM. Then `CCOC(=O)C1CCC(O)(c2ccc(-c3cc(C)cc(Nc4cc(C(F)(F)F)ccn4)n3)cn2)CC1` (centres unmarked) [Example 1-11], with 47 nM. `COC(=O)C1CCC(C(=O)c2ccc(-c3cc(C)cc(Nc4cc(C(F)(F)F)ccn4)n3)cn2)CC1` (centres unmarked) [Example 1-12]: the IC50 is 643 nM. Then `Cc1cc(Nc2cc(C(F)F)ccn2)nc(-c2ccc(C3(O)CCC3)nc2)c1` [Example 1-13], with 5 nM; and `Cc1cc(Nc2cc(C(F)F)ccn2)nc(-c2ccc(C(C)(C)O)nc2)c1` [Example 1-14], with 8 nM. Then `CCCCOC(=O)C1CCC(C(C)(O)c2ccc(-c3cc(C)cc(Nc4cc(C(F)(F)F)ccn4)n3)cn2)CC1` (centres unmarked) [Example 1-15], with 19 nM; and `CCC(O)(c1ccc(-c2cc(C)cc(Nc3cc(C(F)(F)F)ccn3)n2)cn1)C1CCC(C(=O)OC)CC1` (centres unmarked) [Example 1-16], with 12 nM.
